Results as given in patent US10227331B2 (priority 2015, dated 2019).

What was measured:
IMP-1 = IMP-1 (Serratia marcescens, UniProt P52699); test: biochemical; format: biochemical; settings: CCF2-FA substrate, 2 hours at 25° C; read-out: IMP-1 IC50
Summary of the method: (§1)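 IC50 values derive from 4-parameter fits of percent inhibition against inhibitor concentration on semi-log axes. Activity was monitored by fluorescence with the CCF2-FA substrate after a 2-hour, 25° C incubation of compound, enzyme and substrate.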

NDM-1 = NDM-1 (Klebsiella pneumoniae, UniProt C7C422); test: biochemical; format: biochemical; settings: CCF2-FA substrate, 2 hours at 25° C; read-out: NDM-1 IC50
Sequence of NDM-1 (C7C422 whole entry, looked up, species assumed): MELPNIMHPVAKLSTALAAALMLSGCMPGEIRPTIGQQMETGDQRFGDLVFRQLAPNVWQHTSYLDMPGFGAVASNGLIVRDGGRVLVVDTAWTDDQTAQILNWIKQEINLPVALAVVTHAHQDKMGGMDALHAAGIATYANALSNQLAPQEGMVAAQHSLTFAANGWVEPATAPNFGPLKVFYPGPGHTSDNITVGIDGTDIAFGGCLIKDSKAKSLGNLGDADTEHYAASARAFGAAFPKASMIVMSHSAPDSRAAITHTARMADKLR
Summary of the method: as §1

VIM-1 = VIM-1 (Pseudomonas aeruginosa (strain ATCC 15692 / DSM 22644 / CIP 104116 / JCM 14847 / LMG 12228 / 1C / PRS 101 / PAO1), UniProt A0A0F7KYQ8); test: biochemical; settings: CCF2-FA substrate, 2 hours at 25° C
Summary of the method: as §1

[1] = tested on: Escherichia coli expressing NDM-1 (CLB30005, CLB30016); format: cell-based; settings: with imipenem 1 μg/ml; 95% inhibition of bacterial growth
Summary of the method: (§2)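 Restoration of imipenem susceptibility (1 μg/ml imipenem) was judged by absorbance after 22–24 h at 35° C. Test compound was added to bacteria suspended 1:100 in 1.1× CAMHB from overnight blood-agar cultures.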

[2] = tested on: Klebsiella pneumoniae expressing VIM-1 (IHMA599644); format: cell-based; settings: with imipenem 1 μg/ml; 95% inhibition of bacterial growth
Summary of the method: as §2

[3] = tested on: Serratia marcescens expressing IMP-1 (CL5741); format: cell-based; settings: with imipenem 1 μg/ml; 95% inhibition of bacterial growth
Summary of the method: as §2

[4] = tested on: P. aeruginosa expressing IMP-1, efflux+ (MB9798); format: cell-based, Pseudomonas aeruginosa; settings: for P. aeruginosa expressing IMP-1, efflux+ (MB9798) MITC95: imipenem at 2 μg/mL, in the presence of a class A, C, D serine β-lactamase inhibitor closely related to relebactam; for Efflux ratio: ratio MITC95 PA_9798/MITC95 PA_9799
Excerpt: (§3) The strain background is Pseudomonas aeruginosa PAO1.

[5] = tested on: P. aeruginosa expressing IMP-1, efflux− (MB9799); test: Efflux: concentration of MBL inhibitor which restores susceptibility to imipenem; format: cell-based, Pseudomonas aeruginosa; settings: imipenem at 2 μg/mL, in the presence of a class A, C, D serine β-lactamase inhibitor closely related to relebactam
Excerpt: as §3

Sequence of IMP-1 (P52699 whole entry, looked up, species assumed): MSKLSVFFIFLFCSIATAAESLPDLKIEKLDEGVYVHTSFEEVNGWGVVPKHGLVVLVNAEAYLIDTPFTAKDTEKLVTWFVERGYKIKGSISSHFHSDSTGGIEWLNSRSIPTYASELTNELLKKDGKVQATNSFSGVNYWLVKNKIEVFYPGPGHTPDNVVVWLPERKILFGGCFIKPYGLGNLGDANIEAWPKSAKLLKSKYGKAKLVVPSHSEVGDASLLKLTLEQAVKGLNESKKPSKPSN

| Compound | IC50 (IMP-1) [nM] | IC50 (NDM-1) [nM] | IC50 (VIM-1) [nM] | Escherichia coli expressing NDM-1 (CLB30016) MITC95 [1] [µM] | Klebsiella pneumoniae expressing VIM-1 (IHMA599644) MITC95 [2] [µM] | Serratia marcescens expressing IMP-1 (CL5741) MITC95 [3] [µM] | P. aeruginosa expressing IMP-1, efflux+ (MB9798) MITC95 [4] [µM] | Efflux ratio [4] | P. aeruginosa expressing IMP-1, efflux− (MB9799) MITC95 [5] [µM] |
| --- | --- | --- | --- | --- | --- | --- | --- | --- | --- |
| NCCS(=O)(=O)c1ccc(-c2cccc(-n3cccn3)c2)c(-c2nnn[nH]2)c1S(N)(=O)=O.O=C(O)C(F)(F)F [Example 156, 2-((3′-(1H-pyrazol-1-yl)-3-sulfamoyl-2-(1H-tetrazol-5-yl)-[1,1′-biphenyl]-4-yl)sulfonyl)ethanaminium 2,2,2-trifluoroacetate] | 0.981 | 1.08 | 0.743 | 0.7813 | 6.25 | 1.563 | 50 | 31.99 | 1.563 |
| NCCS(=O)(=O)c1ccc(-c2ccc3c(c2)CC(=O)N3)c(-c2nnn[nH]2)c1S(N)(=O)=O.O=C(O)C(F)(F)F [Example 157, 2-((4-(2-oxoindolin-5-yl)-2-sulfamoyl-3-(1H-tetrazol-5-yl)phenyl)sulfonyl)ethanaminium 2,2,2-trifluoroacetate] | 1.89 | 1.94 | 0.295 | 1.563 | 3.125 | 1.563 | 12.5 | 16.00 | 0.7813 |
| NCCS(=O)(=O)c1ccc(-c2cccc(N3CCS(=O)(=O)CC3)c2)c(-c2nnn[nH]2)c1S(N)(=O)=O.O=C(O)C(F)(F)F [Example 158, 2-((3′-(1,1-dioxidothiomorpholino)-3-sulfamoyl-2-(1H-tetrazol-5-yl)-[1,1′-biphenyl]-4-yl)sulfonyl)ethanaminium 2,2,2-trifluoroacetate] | 6.27 | 16.6 | 7.08 | 12.5 | 25 | 12.5 | 200 | 64.00 | 3.125 |
| NCCS(=O)(=O)c1ccc(-c2ccc3cccnc3c2)c(-c2nnn[nH]2)c1S(N)(=O)=O.O=C(O)C(F)(F)F [Example 159, 2-((4-(quinolin-7-yl)-2-sulfamoyl-3-(1H-tetrazol-5-yl)phenyl)sulfonyl)ethanaminium 2,2,2-trifluoroacetate] | 0.487 | 1.1 | 0.264 | 1.563 | 3.125 | 3.125 | 12.5 | 8.00 | 1.563 |
| Cn1ncc2cc(-c3ccc(S(=O)(=O)CCN)c(S(N)(=O)=O)c3-c3nnn[nH]3)ccc21.O=C(O)C(F)(F)F [Example 160, 2-((4-(1-methyl-1H-indazol-5-yl)-2-sulfamoyl-3-(1H-tetrazol-5-yl)phenyl)sulfonyl)ethanaminium 2,2,2-trifluoroacetate] | 0.568 | 1.02 | 0.375 | 1.563 | 6.25 | 3.125 | 12.5 | 8.00 | 1.563 |
| NCCS(=O)(=O)c1ccc(-c2cccc(S(=O)(=O)NC3CC3)c2)c(-c2nnn[nH]2)c1S(N)(=O)=O.O=C(O)C(F)(F)F [Example 161, 2-((3′-(N-cyclopropylsulfamoyl)-3-sulfamoyl-2-(1H-tetrazol-5-yl)-[1,1′-biphenyl]-4-yl)sulfonyl)ethanaminium 2,2,2-trifluoroacetate] | 1.69 | 3.47 | 3.04 | 6.25 | 12.5 | 6.25 | 50 | 31.99 | 1.563 |
